Assay type in all cases: in vivo, rat
The subject of assay [1] is colon carcinoma H1D2-WT cells. Description: Intrahepatic growth of colon carcinoma H1D2-WT, tumor volume after 4 weeks (Table 2). As to the method:
Table 2 is a summary of intrahepatic growth of colon carcinoma H1D2-WT cells treated with low dose CA4P alone or in combination with immunomodulatory gene therapy, and with or without additional inhibitor. Tumor growth was initiated by inoculation beneath the liver capsule with 1×10^5 in vitro cultured BN7005-H1D2 wild type cells suspended in 50 μl RPMI medium. Drug administration (CA4P, L-NAME, Indomethacin) was initiated after 7-8 days when the tumor was macroscopically visible. CA4P was given intraperitoneally, 5 days a week. L-NAME was given by gavage twice a week on the day of immunization and the day after. Indomethacin was given by gavage 48 h after vaccination at a dose of 0.33 mg/kg. Immunization was performed by intraperitoneal administration on day 10 and day 17 using BN7005-H1D2 cells transfected with IL-18 or a mixture of IL-18 and IL-12 transfectants (2-3×10^6 viable cells per rat).
Wild-type (BN7005-H1D2) colon cancer cells (1×10^5 cells) were inoculated intrahepatically and CA4P drug treatment (2 and 5 mg/kg) began daily when the tumors were macroscopically visible. On day 10 and 17, vaccinations were administered intraperitoneally using […] cells transfected with IL-18 transfected cells or mixtures of IL-18 and IL-12 transfected cells (2-3×10^6 viable cells per rat). L-NAME and Indomethacin were also administered by gavage 48 h after vaccination at a dose of 0.33 mg/kg.

Assay [2] has as its system BN7005-H1D2 colon cancer cells. The assay is described as follows: Tumor growth with IL-18/IFN-γ vaccination plus CA4P and/or L-NAME (FIG. 6). As to the method: FIG. 6 illustrates enhancement of the therapeutic effect of vaccination with IL-18/IFN-γ producing tumor transfectant […] cells by concurrent treatment with low dose combretastatin-A4 prodrug and/or L-NAME. Mean tumor volume±SEM is indicated. Significance of differences compared to the PBS control was evaluated by the Student's t test.
Four groups of 6 rats each were inoculated intrahepatically with 1×10^5 wild type colon cancer cells (BN7005-H1D2) on day 0. Drug treatment was initiated on day 7, when the tumor was macroscopically visible as a small nodule, and was repeated 5 days a week. CA4-P was administered i.p. at a dose of 5 mg/kg and L-NAME by gavage at a dose of 48 mg/rat. Vaccination was given twice i.p. on day 10.and 17 with 2×10^6 tumor cells producing IL-18 and IFN-γ, respectively. No drug treatment was given on the day of vaccination and the day after. On day 28 all animals were laparotomized and tumor diameters measured (the longest diameter (a) and the one perpendicular to the first (b) and tumor volume calculated according to the formula 0.4×a×b×b.
Referring to FIG. 6, wild-type (BN7005-H1D2) colon cancer cells were inoculated intrahepatically and combretastatin A4 prodrug treatment began daily on day 7 when the tumors were macroscopically visible. L-NAME, a well known NO inhibitor and effective antitumor agent, was also administered daily. On day 10 and 17 vaccination occurred using BN7005-H1D2 cells transfected with IL-18/IFN-gamma. […] One likely explanation was that both L-NAME and Combretastatin A4 were doing the same thing; i.e. inhibiting the production of proinflammatory cytokines that cause immune suppression.

For assay [3], the system named is BN7005-H1D2 colon cancer cells. The assay is described as follows: Comparison of CA4 and CA4P on BN7005-H1D2 tumor growth, alone or with vaccination (FIG. 5). As to the method: FIGS. 5A AND 5B illustrate a comparison of the therapeutic effect of Combretastatin A4 and Combretastatin A4 Prodrug (2 mg/kg) on tumor growth (BN7005-H1D2) in vivo as a sole therapy or in combination with therapeutic vaccination (IL-18 tumor transfectants). Results are represented as mean tumor volume (FIG. 5A) or as median tumor volume (FIG. 5B) 31 days after tumor initiation.
A comparison was also made of relative effect of CA4 and CA4P administration in vivo with regard to tumor inhibitory effects when used as sole therapy and when combined with immunomodulatory gene therapy. […] A subset of these animals were subjected to regular vaccinations autologous IL-18 and IL-12-transfected tumor cells, respectively.
A comparison has been made of the effect of CA4 and CA4 prodrug with regard to tumor inhibitory effects when used as sole therapy and when combined with immunomodulatory gene therapy. As represented in FIG. 5, wild-type (BN7005-H1D2) colon cancer cells were inoculated intrahepatically and treatment with CA4 and CA4P began on day 7 (2 mg/kg 6 days a week), when the tumors were macroscopically visible. On day 9, 16 and 23, vaccinations occurred using BN7005-H1D2 cells transfected with ILI8 and IL-12, respectively.

Where [4] appears, read: CA4-P 2 mg/kg alone, no L-NAME, no immunization.
Setting [5] is: CA4-P 2 mg/kg i.p. 5 days a week, no L-NAME, with immunization, phosphate disodium salt.
[6] abbreviates: CA4-P 2 mg/kg, with L-NAME gavage, with immunization.
Where [7] appears, read: CA4-P 5 mg/kg, with L-NAME gavage, with immunization, phosphate disodium salt.

SMILES strings stand for the structures. Values joined by “and” are separate entries in the source; they are usually repeats but may differ in a detail not shown here. Equal entries are not always repeated.

Turning to `COc1ccc(/C=C\c2cc(OC)c(OC)c(OC)c2)cc1OP(=O)([O-])[O-].[Na+].[Na+]` [CA4P, CA4 phosphate disodium salt], the “Tumor volume after 4 weeks, Mean” value in assay [1] (setting [4]) was 3834 mm^3; in assay [1] (setting [5]), 3918 mm^3 and 5755 mm^3 and 5135 mm^3 and 3698 mm^3; in assay [1] (setting [6]), 5064 mm^3; in assay [1] (setting [7]), 512 mm^3 and 561 mm^3. Further, the “Tumor volume after 4 weeks, Median” value in assay [1] (setting [4]) is 4037 mm^3; in assay [1] (setting [5]), 3780 mm^3 and 6195 mm^3 and 4275 mm^3 and 3393 mm^3; in assay [1] (CA4-P 2 mg/kg, with L-NAME (+Indomethacin 0.33 mg/kg), with immunization, phosphate disodium salt), 2867 mm^3 and 1463 mm^3 and 1962 mm^3; in assay [1] (setting [6]), 4792 mm^3; in assay [1] (setting [7]), 426 mm^3 and 367 mm^3. Moreover, the “Enhancement by combining L-NAME with combretastatin A4 prodrug” value in assay [2] (CA4-P 5 mg/kg + L-NAME 48 mg/rat + vaccination) is “only a small enhancement”. Moreover, the “Tumor growth compared to the PBS group” value in assay [2] (CA4P 5 mg/kg i.p. + vaccination with IL-18/IFN-γ producing tumor cells, day 28) was “inhibited the tumor growth significantly”. In addition, the Tumor inhibitory effect entry is listed as “no significant effect as sole therapy” in assay [3] (2 mg/kg 6 days a week as sole therapy); “significant tumor inhibitory effects” in assay [3] (2 mg/kg combined with vaccination (IL-18 and IL-12 transfected tumor cells)).

The record behind these values is patent US6773702B2, “Use of combretastatin A4 and its prodrugs as an immune enhancing therapy” (OXiGENE, Inc., priority 2000, dated 2004).
